Experimental data published in US20190152992A1, “BENZODIOXANE DERIVATIVES AND THEIR PHARMACEUTICAL USE” (Orion Corporation, priority 2016, published 2019).

Legend:
human alpha2C receptors = target: T1, human alpha2C receptors (Homo sapiens, UniProt P18825); experiment: Determination of alpha2C antagonistic activity in vitro (FLIPR calcium assay); conditions: for Kb: Alpha 2C Adrenaline Kb, Kb calculated from IC50 with the Cheng-Prusoff equation, adrenaline as agonist, CHO cells, human alpha2C
T1 sequence (P18825 1-462): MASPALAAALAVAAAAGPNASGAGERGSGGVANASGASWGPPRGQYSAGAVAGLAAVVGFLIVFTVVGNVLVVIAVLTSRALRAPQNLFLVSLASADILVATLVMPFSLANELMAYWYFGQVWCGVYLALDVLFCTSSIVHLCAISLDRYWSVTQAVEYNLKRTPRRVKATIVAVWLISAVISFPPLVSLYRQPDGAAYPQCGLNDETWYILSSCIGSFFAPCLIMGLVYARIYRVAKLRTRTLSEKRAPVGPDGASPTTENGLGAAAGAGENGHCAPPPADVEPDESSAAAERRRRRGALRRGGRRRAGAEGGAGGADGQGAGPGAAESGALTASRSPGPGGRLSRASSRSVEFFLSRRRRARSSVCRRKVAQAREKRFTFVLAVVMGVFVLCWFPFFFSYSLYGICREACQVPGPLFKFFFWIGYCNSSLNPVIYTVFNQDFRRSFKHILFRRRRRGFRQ
Procedure: (§1) Experiment 1: Determination of alpha2A and alpha2C Antagonistic Activity In Vitro
(§2) The growth medium was removed and the cells were incubated with the test compounds and the FLIPR Calcium 6 Assay reagent (Molecular Devices, CA, USA) for 2 h at 37° C. in dark. The test compounds (concentrations in cells 100 pM-10 μM) were dissolved in Probenecid-Ringer consisting of 150 mM NaCl, 3 mM KCl, 1.2 mM MgCl2, 1 mM CaCl2, 5 mM glucose, 20 mM HEPES and 2.5 mM probenecid (pH 7.4 adjusted with 1.0 M NaOH). […] All experiments were performed at 37° C. For agonism measurements the test compounds dissolved in Probenecid-Ringer were applied by FLIPR Tetra at 15 s time point. In order to determine antagonism, the cells were stimulated either with 100 nM adrenaline or noradrenaline and the test compounds were added to the cells 2 h before the experiment with the FLIPR Calcium 6 Assay reagent. […] Typically, there were four replicates at each concentration and six different dose levels. […] The minimum fluorescence value subtracted from the maximum value for each well was used in the calculations. ScreenWorks version 4.0 software was used for analyzing the results. Fitting of the antagonist dose-response results was performed with the free Hill equation and the IC50 values were fitted with IDBS XE software using model 200: y=(A+(B/(1+((x/C)̂D)))), where A is the curve maximum, B the curve minimum and C equals the EC50 value. D is slope factor (Hill). Kb was calculated with the Cheng-Prusoff equation Kb=A/((B/C)+1), where A is the IC50 of antagonist, B the concentration of agonist and C the EC50 of the agonist.

human alpha2A receptors = target: T2, human alpha2A receptors (Homo sapiens, UniProt P08913); experiment: cell-based
T2 sequence (P08913 1-465): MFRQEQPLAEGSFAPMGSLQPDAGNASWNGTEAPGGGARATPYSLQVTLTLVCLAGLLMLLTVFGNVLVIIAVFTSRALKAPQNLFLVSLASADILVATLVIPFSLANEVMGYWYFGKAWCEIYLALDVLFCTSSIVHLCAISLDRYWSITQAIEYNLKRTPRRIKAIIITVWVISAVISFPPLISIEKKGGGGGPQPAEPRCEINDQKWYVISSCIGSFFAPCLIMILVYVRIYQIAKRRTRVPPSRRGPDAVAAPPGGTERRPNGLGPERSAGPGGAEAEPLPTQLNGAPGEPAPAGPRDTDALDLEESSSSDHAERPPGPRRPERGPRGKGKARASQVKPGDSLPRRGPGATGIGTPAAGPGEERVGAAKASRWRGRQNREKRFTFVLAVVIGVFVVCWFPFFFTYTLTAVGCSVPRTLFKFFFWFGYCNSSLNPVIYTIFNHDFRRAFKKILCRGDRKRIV
Procedure: as §1, §2

Row | SMILES | IC50 (human alpha2C receptors) [nM] | Kb (human alpha2C receptors) [nM] | IC50 (human alpha2A receptors) [nM] | Kb (human alpha2A receptors) [nM]
1 | CN(C)C(=O)CN1CC(=O)N([C@H]2CCCN(C[C@H]3COc4ccccc4O3)C2)C1=O [example 109, 2-(3-((S)-1-(((S)-2,3-Dihydrobenzo[b][1,4]dioxin-2-yl)methyl)piperidin-3-yl)-2,4-dioxoimidazolidin-1-yl)-N,N-dimethylacetamide] | 0.117 | 0.014 | > 10000 | > 449
2 | CN1C(=O)N([C@H]2CCCN(C[C@H]3COc4ccccc4O3)C2)C(=O)C1(C)C [example 111, 3-((S)-1-(((S)-2,3-Dihydrobenzo[b][1,4]dioxin-2-yl)methyl)-piperidin-3-yl)-1,5,5-trimethylimidazolidine-2,4-dione] | 0.87 | 0.09 | > 10000 | > 449
3 | C[C@H]1NC(=O)N([C@H]2CCCN(C[C@H]3COc4ccccc4O3)C2)C1=O [example 112, (R)-3-((S)-1-(((S)-2,3-Dihydrobenzo[b][1,4]dioxin-2-yl)methyl)-piperidin-3-yl)-5-methylimidazolidine-2,4-dione] | 0.16 | 0.02 | > 10000 | > 449
4 | C[C@@H]1NC(=O)N([C@H]2CCCN(C[C@H]3COc4ccccc4O3)C2)C1=O [example 113, (S)-3-((S)-1-(((S)-2,3-Dihydrobenzo[b][1,4]dioxin-2-yl)methyl)-piperidin-3-yl)-5-methylimidazolidine-2,4-dione] | 0.175 | 0.015 | > 10000 | > 449
5 | O=C1NC(c2ccccc2)C(=O)N1[C@H]1CCCN(C[C@H]2COc3ccccc3O2)C1 (stereo partly drawn) [example 114, 3-((S)-1-(((S)-2,3-Dihydrobenzo[b][1,4]dioxin-2-yl)methyl)piperidin-3-yl)-5-phenylimidazolidine-2,4-dione] | < 0.1 | < 0.01 | 2340 | 105
6 | CC1C(=O)N([C@H]2CCCN(C[C@H]3COc4ccccc4O3)C2)C(=O)N1C (stereo partly drawn) [example 115, 3-((S)-1-(((S)-2,3-Dihydrobenzo[b][1,4]dioxin-2-yl)methyl)-piperidin-3-yl)-1,5-dimethylimidazolidine-2,4-dione] | 2.08 | 0.21 | > 10000 | > 449
7 | CC(C)N1C(=O)N([C@H]2CCCN(C[C@H]3COc4ccccc4O3)C2)C(=O)C1(C)C [example 116, 3-((S)-1-(((S)-2,3-Dihydrobenzo[b][1,4]dioxin-2-yl)methyl)-piperidin-3-yl)-1-isopropyl-5,5-dimethylimidazolidine-2,4-dione] | 1 | 0.1 | > 10000 | > 449
8 | CC(C)(C)N1CC(=O)N([C@H]2CCCN(C[C@H]3COc4ccccc4O3)C2)C1=O [example 117, 1-tert-Butyl-3-((S)-1-(((S)-2,3-dihydrobenzo[b][1,4]dioxin-2-yl)methyl)piperidin-3-yl)imidazolidine-2,4-dione] | 1.99 | 0.202 | > 10000 | > 449
9 | O=C1CN(Cc2ccccc2)C(=O)N1[C@H]1CCCN(C[C@H]2COc3ccccc3O2)C1 [example 118, 1-Benzyl-3-((S)-1-(((S)-2,3-dihydrobenzo[b][1,4]dioxin-2-yl)methyl)-piperidin-3-yl)imidazolidine-2,4-dione] | < 0.1 | < 0.01 | 1120 | 50

Next, values leading:

Row | IC50 (human alpha2C receptors) [nM] | Kb (human alpha2C receptors) [nM] | IC50 (human alpha2A receptors) [nM] | Kb (human alpha2A receptors) [nM] | SMILES
10 | 17.5 | 1.76 | > 10000 | > 449 | O=C1CN(C2CC2)C(=O)N1[C@H]1CCCN(C[C@H]2COc3ccccc3O2)C1 [example 119, 1-Cyclopropyl-3-((S)-1-(((S)-2,3-dihydrobenzo[b][1,4]dioxin-2-yl)methyl)piperidin-3-yl)imidazolidine-2,4-dione]
11 | 132 | 13.3 | > 10000 | > 449 | O=C1CN(C2COC2)C(=O)N1[C@H]1CCCN(C[C@H]2COc3ccccc3O2)C1 [example 120, 3-((S)-1-(((S)-2,3-Dihydrobenzo[b][1,4]dioxin-2-yl)methyl)-piperidin-3-yl)-1-(oxetan-3-yl)imidazolidine-2,4-dione]
12 | 26.4 | 2.66 | > 10000 | > 449 | O=C1CN(C2CC(F)(F)C2)C(=O)N1[C@H]1CCCN(C[C@H]2COc3ccccc3O2)C1 [example 121, 1-(3,3-Difluorocyclobutyl)-3-((S)-1-(((S)-2,3-dihydrobenzo[b][1,4]dioxin-2-yl)methyl)piperidin-3-yl)imidazolidine-2,4-dione]
13 | 0.11 | 0.01 | 1380 | 62 | O=C1NC2(CC2)C(=O)N1[C@H]1CCCN(C[C@H]2COc3ccccc3O2)C1 [example 122, 6-((S)-1-(((S)-2,3-Dihydrobenzo[b][1,4]dioxin-2-yl)methyl)-piperidin-3-yl)-4,6-diazaspiro[2.4]heptane-5,7-dione]
14 | 3.52 | 0.354 | > 10000 | > 449 | CN1C(=O)N([C@H]2CCCN(C[C@H]3COc4ccccc4O3)C2)C(=O)C12CC2 [example 123, 6-((S)-1-(((S)-2,3-Dihydrobenzo[b][1,4]dioxin-2-yl)methyl)-piperidin-3-yl)-4-methyl-4,6-diazaspiro[2.4]heptane-5,7-dione]
15 | 1.47 | 0.131 | > 10000 | > 449 | CN(C)C(=O)CN1C(=O)N([C@H]2CCCN(C[C@H]3COc4ccccc4O3)C2)C(=O)C12CC2 [example 124, 2-(6-((S)-1-(((S)-2,3-Dihydrobenzo[b][1,4]dioxin-2-yl)methyl)-piperidin-3-yl)-5,7-dioxo-4,6-diazaspiro[2.4]heptan-4-yl)-N,N-dimethylacetamide]
16 | 0.01 | 0.001 | 3890 | 175 | O=C1C(=O)N([C@H]2CCCN(C[C@H]3COc4ccccc4O3)C2)C(=O)N1C1CCCCC1 [example 126, 1-Cyclohexyl-3-((S)-1-(((S)-2,3-dihydrobenzo[b][1,4]dioxin-2-yl)methyl)piperidin-3-yl)imidazolidine-2,4,5-trione]
17 | 0.027 | 0.003 | 8670 | 389 | O=C1C(=O)N([C@H]2CCCN(C[C@H]3COc4ccccc4O3)C2)C(=O)N1C1CCCC1 [example 127, 1-Cyclopentyl-3-((S)-1-(((S)-2,3-dihydrobenzo[b][1,4]dioxin-2-yl)methyl)piperidin-3-yl)imidazolidine-2,4,5-trione]
18 | 1.19 | 0.119 | 8890 | 399 | C[C@H](c1ccccc1)N1C(=O)C(=O)N([C@H]2CCCN(C[C@H]3COc4ccccc4O3)C2)C1=O [example 128, 1-((S)-1-(((S)-2,3-Dihydrobenzo[b][1,4]dioxin-2-yl)methyl)-piperidin-3-yl)-3-((R)-1-phenylethyl)imidazolidine-2,4,5-trione]
19 | 1.58 | 0.162 | > 10000 | > 449 | O=C1C(=O)N([C@H]2CCCN(C[C@H]3COc4ccccc4O3)C2)C(=O)N1c1ccccc1 [example 129, 1-((S)-1-(((S)-2,3-Dihydrobenzo[b][1,4]dioxin-2-yl)methyl)-piperidin-3-yl)-3-phenylimidazolidine-2,4,5-trione]
20 | 0.256 | 0.028 | 6590 | 296 | CC(C)N1C(=O)C(=O)N([C@H]2CCCN(C[C@H]3COc4ccccc4O3)C2)C1=O [example 130, 1-((S)-1-(((S)-2,3-Dihydrobenzo[b][1,4]dioxin-2-yl)methyl)-piperidin-3-yl)-3-isopropylimidazolidine-2,4,5-trione]
21 | 1.64 | 0.165 | 5700 | 256 | O=C1C(=O)N([C@H]2CCCN(C[C@H]3COc4ccccc4O3)C2)C(=O)N1Cc1ccccc1 [example 131, 1-Benzyl-3-((S)-1-(((S)-2,3-dihydrobenzo[b][1,4]dioxin-2-yl)methyl)piperidin-3-yl)imidazolidine-2,4,5-trione]
22 | 0.308 | 0.031 | > 10000 | > 449 | CCCN1C(=O)C(=O)N([C@H]2CCCN(C[C@H]3COc4ccccc4O3)C2)C1=O [example 132, 1-((S)-1-(((S)-2,3-Dihydrobenzo[b][1,4]dioxin-2-yl)methyl)-piperidin-3-yl)-3-propylimidazolidine-2,4,5-trione]
